The values below come from patent publication US20160166543A1 (priority 2014, published 2016).

Structures are written as SMILES. ≈ marks a conversion by molar mass, not a printed value. Like-named read-outs stand apart in the source and are kept apart here.

For data set [1] the following is noted: in vivo, cited from earlier work.
For data set [2] the following is noted: humans; cited from earlier work.
The conditions of data set [3]: older adults, cited from earlier work.
The conditions of data set [4]: rat, in vivo, po; cited from earlier work.
The next data set in a line: physchem. In kind it is physicochemical. Here is the method: There are different types of cyclodextrins available. For the purpose of this patent application, the cyclodextrin can be one or more the following—alpha cyclodextrin (alpha CD), beta cyclodextrin (beta CD), gamma cyclodextrin (gamma CD), hydroxypropyl beta cyclodextrin (HPBCD), sulfobutyl ether beta cyclodextrin (SBEBCD), and randomly methylated beta cyclodextrin. […] The concentration of cyclodextrin in the samples ranged from 0 mg/mL to 12.5 mg/mL.

Broadly, the Tmax is the time at which the peak concentration occurs. In general, solubility refers to how much of the substance goes into solution per volume. A high value points to a readily soluble substance.

For the compound `CN(C)CCOC(C)(c1ccccc1)c1ccccn1` (stereo not shown) [Doxylamine succinate], the apparent oral clearance in data set [1] (po) is 217 mL/min. In addition, in data set [1], the elimination half-life is 10.1 h and the “mean Cmax (maximum blood concentration)” value was 99 ng/mL. The median lethal dose in data set [2] is 50 to 500 mg/kg.

Take `COc1ccc2[nH]cc(CCNC(C)=O)c2c1` [Melatonin]: in data set [3] (high dose (>2 mg)), the Tmax is 1.5 h. In addition, the Tmax in data set [3] (low dose (<0.5 mg)) is 1.3 h. In addition, the LD50 entry in data set [4] is on record as “over 3200 mg/kg”. Also, in “physchem”, the “increase of solubility in water” value is reported as roughly 60% and the “saturation solubility in water” value was found to be 1750 µg/mL. For the same compound, in “physchem” (water, thermodynamic from solid, saturation solubility in water), the solubility is roughly 1750 µg/mL (≈ 7.53 mM).
